Tested on: patients with Acute Decompensated Heart Failure
Assay: Clinical study of istaroxime 24 h i.v. infusion in Acute Decompensated Heart Failure, echocardiography
Assay type: in vivo, human
Description: Echocardiography was performed on patients according to international standards (see, for example, Lang R M et al., J Am Soc Echocardiogr 2005; 18(12):1440-63; Nagueh S F et al., Eur J Echocardiogr 2009; 10(2):165-93; Evangelista A et al., Eur J Echocardiogr 2008; 9(4):438-48). Echocardiography was performed by expert physicians or sonographers at the sites. Echocardiography was done at screening, baseline, 6 hours after infusion start, 24 hours after infusion start (just before the end of infusion), and 48 hours after infusion start.
The following parameters were recorded for each patient at each timepoint and centrally measured by the CoreLab: • 1. Cardiac dimension measures: • a. Left ventricle end diastolic diameter (EDD): measured with M-mode echocardiography at the level of mitral valve (MV) leaflets from parasternal long axis view (PLAX) (normal range [NR]: 42-59 mm males and 39-53 mm females); • b. Left ventricle end systolic diameter (ESD): measured with M-mode echocardiography at the level of mitral valve (MV) leaflets from PLAX (NR: 25-35 mm); • c. Left ventricle end diastolic volume (EDV): measured with M-mode echocardiography at the level of mitral valve (MV) leaflets from PLAX (NR: 67-155 mL males and 56-104 mL females); • d. Left ventricle end systolic volume (ESV): measured with M-mode echocardiography at the level of mitral valve (MV) leaflets from PLAX (NR: 22-58 mL males and 19-49 mL females); • e. Left atrium diameter (LAD): measured at end-ventricular systole with M-mode echocardiography from PLAX. (NR: 30-40 mm males and 27-38 mm females) • f. Left atrium area (LAA): measured from apical four chamber view ([…]); and • g. Left atrium volume (LAV): derived from area-length measured from apical four chamber view (NR: 18-58 mL males and 22-52 mL females). • 2. Left ventricle diastolic function parameters: • a. E wave: measured from mitral valve pulsed wave Doppler, is the peak velocity of early filling. […] A wave: measured from mitral valve pulsed wave Doppler is the peak velocity of late atrial filling. Not evaluable in patients with AF; • c. E wave deceleration time (EDT): measured from mitral valve pulsed wave Doppler represent the slope of the descending part of E wave; • d. E/A ratio: determines the type of diastolic filling pattern (normal E/A=1-2 and EDT=150-200 ms, abnormal relaxation E/A<1 and […], pseudonormal E/A=0.8-1.5; restrictive […] and EDT<160 ms). Not evaluable in patients with AF; • e. Ea: measured with tissue Doppler method at the lateral and septal side of the mitral annulus from apical four chamber view is the early diastolic velocity. The value has been calculated as the average between Ea lateral and Ea septal. ([…]) (see Nagueh S F et al., Eur J Echocardiogr. 2009; 10(2):165-93); • f. Aa: measured with tissue Doppler method at the lateral and septal side of the mitral annulus from apical four chamber view is the late atrial diastolic velocity. The value has been calculated as the average between Aa lateral and Aa septal. Not evaluable in patients with AF; and • g. E/Ea ratio: this is a derived measure from E and Ea value. This is highly correlated with left ventricle filling pressure and with prognosis in patients with HF. (NR: <13) (see Nagueh S F et al., supra). • 3. Left ventricle systolic function parameters: • a. Left ventricle ejection fraction (LVEF): measured with Simpson biplane method according to international recommendations from apical four chamber view and apical two chamber view. ([…]) (see Lang R M et al., J Am Soc Echocardiogr. 2005; 18(12):1440-63); and • b. Sa: measured with tissue Doppler method at the lateral and septal side of the mitral annulus from apical four chamber view. The value has been calculated as the average between Sa lateral and Sa septal. […] Overall cardiac contraction parameters: • a. […]

[1] = 0.5 μg/kg/min i.v. for 24 h, at 48 hours
[2] = 0.5 μg/kg/min i.v., at 6 hours of infusion
[3] = 0.5 μg/kg/min i.v., at 24 hours of infusion
[4] = 1.0 μg/kg/min i.v. for 24 h, at 48 hours
[5] = 1.0 μg/kg/min i.v., at 6 hours of infusion
[6] = 1.0 μg/kg/min i.v., at 24 hours of infusion

C[C@]12CCC(=NOCCN)C[C@@H]1C(=O)C[C@@H]1[C@@H]2CC[C@]2(C)C(=O)CC[C@@H]12 [Istaroxime, (3Z,5a)-3-[(2-aminoethoxy)imino]androstane-6,17-dione]
CI change [1]: 0.191 ± 0.426 l/min/m^2
CO change [1]: 0.350 ± 0.788 L/min
E/A ratio change [1]: −0.278 ± 1.043
E/e′ ratio change [1]: −2.570 ± 3.654
LVEF change [1]: 1.28 ± 3.693%
SV change [1]: 4.815 ± 9.832 ml/beat
SVI change [1]: 2.762 ± 5.603 ml/beat/m^2
Sa change [1]: 0.224 ± 0.811 cm/s
A wave change [2]: 1.76 ± 13.572 cm/s
CI change [2]: 0.209 ± 0.445 l/min/m2
CO change [2]: 0.385 ± 0.843 L/min
E wave change [2]: -3.33 ± 14.764 cm/s
E/A ratio change [2]: −0.286 ± 0.866
E/e′ ratio change [2]: −3.183 ± 5.628
EDT change [2]: 6.83 ± 47.921 ms
LAA change [2]: −0.33 ± 1.885 cm^2
LAV change [2]: -1.16 ± 11.265 mL
S Right V change [2]: 1.25 ± 2.185 cm/s
SV change [2]: 7.724 ± 11.752 ml/beat
SVI change [2]: 4.198 ± 6.218 ml/beat/m2
Sa Left V change [2]: 0.613 ± 1.035 cm/s
e′ change [2]: 0.61 ± 1.010 cm/s
A wave change [3]: 5.13 ± 10.990 cm/s
CI change [3]: 0.264 ± 0.369 l/min/m2
CO change [3]: 0.486 ± 0.696 L/min
E wave change [3]: -8.14 ± 17.640 cm/s
E/A ratio change [3]: −0.647 ± 0.812
E/e′ ratio change [3]: −4.548 ± 4.754
EDT change [3]: 12.88 ± 54.954 ms
LAA change [3]: −1.70 ± 2.463 cm^2
LAV change [3]: -7.94 ± 13.269 mL
S Right V change [3]: 1.10 ± 1.780 cm/s
SV change [3]: 9.725 ± 12.192 ml/beat
SVI change [3]: 5.333 ± 6.664 ml/beat/m2
Sa Left V change [3]: 0.679 ± 0.907 cm/s
e′ change [3]: 0.94 ± 1.089 cm/s
CI change [4]: 0.205 ± 0.407 l/min/m^2
CO change [4]: 0.368 ± 0.735 L/min
E/A ratio change [4]: −0.356 ± 0.967
E/e′ ratio change [4]: −2.218 ± 3.193
LVEF change [4]: 2.06 ± 4.975%
SV change [4]: 5.203 ± 8.078 ml/beat
SVI change [4]: 2.913 ± 4.572 ml/beat/m^2
Sa change [4]: 0.257 ± 0.771 cm/s
A wave change [5]: 5.56 ± 17.280 cm/s
CI change [5]: 0.140 ± 0.434 l/min/m2
CO change [5]: 0.228 ± 0.760 L/min
E wave change [5]: -9.13 ± 17.464 cm/s
E/A ratio change [5]: −0.317 ± 0.898
E/e′ ratio change [5]: −2.028 ± 3.652
EDT change [5]: 20.37 ± 50.849 ms
LAA change [5]: −0.84 ± 2.421 cm^2
LAV change [5]: -4.92 ± 14.390 mL
S Right V change [5]: 2.00 ± 1.907 cm/s
SV change [5]: 7.269 ± 8.134 ml/beat
SVI change [5]: 4.187 ± 4.641 ml/beat/m2
Sa Left V change [5]: 0.908 ± 0.936 cm/s
e′ change [5]: 0.01 ± 1.154 cm/s
A wave change [6]: 11.10 ± 16.498 cm/s
CI change [6]: 0.140 ± 0.443 l/min/m2
CO change [6]: 0.239 ± 0.786 L/min
E wave change [6]: -14.24 ± 24.416 cm/s
E/A ratio change [6]: −0.722 ± 1.068
E/e′ ratio change [6]: −3.191 ± 2.623
EDT change [6]: 9.79 ± 52.212 ms
LAA change [6]: −2.56 ± 2.972 cm^2
LAV change [6]: -13.81 ± 17.198 mL
S Right V change [6]: 1.55 ± 2.012 cm/s
SV change [6]: 9.339 ± 8.875 ml/beat
SVI change [6]: 5.318 ± 4.955 ml/beat/m2
Sa Left V change [6]: 0.803 ± 1.023 cm/s
e′ change [6]: 0.91 ± 1.792 cm/s

From US12343350B2, “Istaroxime-containing intravenous formulation for the treatment of acute heart failure (AHF)” (Windtree Therapeutics, Inc., priority 2019, dated 2025)
